Test results published in patent publication US5348980A, “Enantiomers derived from (S)-2-amino-2-(3,4-dichlorobenzyl)-1-propanol, their use and method of preparation” (Institute de Recherche Jouveinal, priority 1992, dated 1994).
Counter-ions that a name gives are not always drawn.

Tests used:
[1] = tested on: bronchoconstriction caused by 100 nmol/kg of histamine; assay: Histamine-induced bronchoconstriction test (Konzett and Rossler), intranasal-powder (In.P.) administration; assay type: in vivo, guinea pigs
Source text: Furthermore, the antihistaminic properties were studied in guinea pigs by the bronchoconstriction test performed according to the method of H. Konzett and R. Rossler (Arch. Exp. Path. Pharmak.--Naunym Schmiedeberg - 195, 71-74, 1940). The products of the invention were studied in this test after administration in solution or in suspension via the intravenous and intraduodenal routes, and also in powder form via the intranasal route. Irrespective of the administration route, the preparation of the animals employed in the test consists in first anesthetizing male guinea pigs weighing 350 to 400 g by intraperitoneal (i.p.) injection of a sterile and isotonic solution containing 25% (w/v.) of ethyl carbamate on the basis of 6.0 ml/kg, and in then fitting the animals with a tracheal cannula to permit measurement of the pulmonary pressure, a cannula in the right jugular vein for the intravenous (i.v.) administration of solution, and also a cannula in the left carotid artery for qualitative observation of the blood pressure. The animals are then connected to a pump (Harvard, ref. 50-1718) in order to maintain an artificial ventilation at a frequency of 60 insufflations per minute; the intratracheal pressure is recorded by an assembly comprising a transducer, an amplifier and a recorder (Gould, respective refs.: PLOEZ, 13-4615-50 and 8188-[…]-06). Fitted in this way, the animals are left undisturbed for 10 minutes before the beginning of the actual experiment, which is carried out in different ways according to the administration route envisaged. c) intranasal-powder (In.p) administration The test product is administered via a nasal insufflation of a powder consisting of 20 mg of lactose loaded with the appropriate quantity of the test product. Before this insufflation, the artificial ventilation of the animal is momentarily stopped in order to facilitate the pulmonary penetration of the compound. […] Failing this expression, the results are expressed as a % change at the time in question and for a given concentration of the test product. […]

[2] = tested on: bronchoconstriction caused by ovalbumin in the sensitized animal; assay: Inhibition of ovalbumin-induced anaphylactic bronchoconstriction in sensitized guinea pigs, oral; assay type: in vivo; conditions: Cavia porcellus, 1 h, intratracheal pressure after 60 minutes, read-out: ED50 inhibiting 50% of ovalbumin-induced bronchoconstriction
Protocol: The technique performed consists in previously sensitizing guinea pigs weighing 250 to 300 g by two intraperitoneal injections, separated by an interval of 24 hours, of 0.5 ml of a sterile suspension of physiological saline (0.9% NaCl) containing 20 μg of ovalbumin (Grade V; Sigma) and 100 mg of aluminum hydroxide Al(OH)3. At the same time, unsensitized control animals are treated with two injections of suspension not containing ovalbumin. The actual experiment is performed after a period needed for the sensitization of the animals, which is between 14 and 21 days. It is generally arrived at after 18 days, and consists in first administering increasing quantities of the test product in solution in water orally to groups of 5 animals, on the basis of 0.5 to 1.0 ml per animal, corresponding to doses of 1 to 10 μmol/kg of product. The animals are then anesthetized 50 minutes after this administration by an intraperitoneal injection of a solution of urethane. […] After 60 minutes, the intratracheal pressure measured in mm of Hg is determined for each animal of the test groups and those of the control group. These measurements enable the extent of the inhibition of bronchoconstriction produced by the test product to be determined. […]

| Structure (SMILES) | ED50 ([1]; Cavia porcellus, 5 min, t = 5 min, read-out: ED50 at t = 5 min, inhibition of histamine-induced bronchoconstriction) [µmol/kg] | ED50 [2] [µmol/kg] | ED50 at t = 5 min, inhibition of histamine-induced bronchoconstriction [1] [µmol/kg] |
| --- | --- | --- | --- |
| C=CCN(C)[C@](C)(CO)Cc1ccc(Cl)c(Cl)c1 [Example 2, base, (S)-(+)-N-allyl-2-methylamino-2-(3,4-dichlorobenzyl)-1-propanol] | 1.28 | – | – |
| C=CCN(C)[C@](C)(CO)Cc1ccc(Cl)c(Cl)c1 [Example 2, hydrochloride, (S)-(+)-N-allyl-2-methylamino-2-(3,4-dichlorobenzyl)-1-propanol] | – | 1.84 | 1.77 |
